Results reported in US20100304972A1, “HERBICIDE COMPOSITION” (priority 2007, published 2010).

Experiments:
Format in all cases: in vivo
Chenopodim album = assay: Test Example 2: spray on plants from above ten days after sowing, herbicidal activity; conditions: sprayed on plants ten days after sowing, 21 days after treatment, scale 0-10
Cyperus esculentus = assay: Test Example 4: soil spray on day of planting tubers, herbicidal activity; conditions: 14 days after treatment, scale 0-10
From the text: Field soil was filled in a plastic pot of 32 cm wide, 22 cm long and 8 cm high, and tubers of Cyperus esculentus were planted.
On the day of planting, each of an imazosulfuron suspension formulation (a 40% imazosulfuron-containing suspension formulation, trade name: Sibatite 40 manufactured by Sumitomo Chemical Co., Ltd.), a pendimethalin emulsifiable concentrate (a 30% pendimethalin-containing emulsifiable concentrate, trade name: Go-go-san 30 manufactured by BASF) and a mixed formulation prepared by mixing the imazosulfuron suspension formulation and the pendimethalin emulsifiable concentrate was diluted with water and uniformly sprayed on the soil with a small sprayer so that their amounts became those as shown in Table 4.
The plants were raised in a greenhouse and herbicidal activity was determined 14 days after the chemical treatment.

Stellaria media = assay: Test Example 2: spray on plants from above ten days after sowing, herbicidal activity; conditions: sprayed on plants ten days after sowing, 21 days after treatment, scale 0-10
Method: (§1) The phytotoxicity to a crop is evaluated by indicating “harmless” in case that no or little phytotoxicity is recognized, “light” in case that light phytotoxicity is recognized, “medium” in case that medium phytotoxicity is recognized, or “severe” in case that severe phytotoxicity is recognized.
(§2) Field soil was filled in a plastic pot of 32 cm wide, 22 cm long and 8 cm high, and seeds of wheat (species: Norin No. 61), Sinapis arvensis, and Stellaria media were sowed thereon.
(§3) The plants were raised in a greenhouse and herbicidal activity and phytotoxicity were determined 21 days after the chemical treatment.

Sinapis arvensis = assay: as above; conditions: sprayed on plants ten days after sowing, 21 days after treatment, scale 0-10
Method: as §1, §2, §3

[1] = test system: wheat (species: Norin No. 61); assay: Test Example 2: spray on plants from above ten days after sowing, phytotoxicity to crop; conditions: 800 g/ha, sprayed on plants ten days after sowing, 21 days after treatment
Method: as §1, §2, §3

COc1cc(OC)nc(NC(=O)NS(=O)(=O)c2c(Cl)nc3ccccn23)n1 [Imazosulfuron, 1-(2-chloroimidazo[1,2-a]pyridin-3-ylsulfonyl)-3-(4,6-dimethoxypyrimidin-2-yl)urea]
Herbicidal activity Ca (Chenopodim album; 100 g/ha): 3 | Herbicidal activity (Cyperus esculentus; 25 g/ha): 4 | Herbicidal activity Sm (Stellaria media; 100 g/ha): 10 | Herbicidal activity Sa (Sinapis arvensis; 100 g/ha): 10

CCC(CC)Nc1c([N+](=O)[O-])cc(C)c(C)c1[N+](=O)[O-] [Pendimethalin, N-(1-ethylpropyl)-3,4-dimethyl-2,6-dinitrobenzenamine]
Herbicidal activity Ca (Chenopodim album; 800 g/ha): 5 | Phytotoxicity Wheat [1]: harmless | Herbicidal activity (Cyperus esculentus; 50 g/ha): 0 | Herbicidal activity (Cyperus esculentus; 200 g/ha): 0 | Herbicidal activity Sm (Stellaria media; 800 g/ha): 9 | Herbicidal activity Sa (Sinapis arvensis; 800 g/ha): 2
